We go through five compounds from patent US9957264B2 (Merck Sharp & Dohme Corp., priority 2013, dated 2018).

Experiment [1] concerns the target JAK1 (recombinant purified GST-tagged catalytic domain) (Homo sapiens (Human), UniProt P23458). The experiment can be described thus: Jak Biochemical HTRF Assay (JAK1). As to conditions: [ATP] 31.8 μM. In a few lines: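 GST-tagged human catalytic domains of JAK1 or JAK2 phosphorylated a biotinylated peptide substrate for 120 min at room temperature after ATP addition. Reaction quenched with EDTA stop buffer containing streptavidin-Dylight 650 and Eu-pY20 antibody; HTRF 665/615 nm ratio normalized to untreated controls, IC50 from 4-parameter fit.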
(In general: In TR-FRET formats the signal depends on donor and acceptor labels being close together.)

Experiment [2] concerns the target JAK2 (recombinant purified GST-tagged catalytic domain) (Homo sapiens (Human), UniProt O60674). The experiment can be described thus: Jak Biochemical HTRF Assay (JAK2). Conditions: [ATP] 8.5 μM.

JAK1 (recombinant purified GST-tagged catalytic domain), sequence (P23458 875-1153): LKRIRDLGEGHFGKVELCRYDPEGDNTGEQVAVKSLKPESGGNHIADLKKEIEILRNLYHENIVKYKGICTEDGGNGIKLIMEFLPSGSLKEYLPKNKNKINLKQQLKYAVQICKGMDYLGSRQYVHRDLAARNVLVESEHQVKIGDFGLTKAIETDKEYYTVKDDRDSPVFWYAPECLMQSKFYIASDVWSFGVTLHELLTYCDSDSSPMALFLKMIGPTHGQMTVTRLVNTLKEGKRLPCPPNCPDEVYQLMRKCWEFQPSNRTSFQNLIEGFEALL
JAK2 (recombinant purified GST-tagged catalytic domain), sequence (O60674 849-1124): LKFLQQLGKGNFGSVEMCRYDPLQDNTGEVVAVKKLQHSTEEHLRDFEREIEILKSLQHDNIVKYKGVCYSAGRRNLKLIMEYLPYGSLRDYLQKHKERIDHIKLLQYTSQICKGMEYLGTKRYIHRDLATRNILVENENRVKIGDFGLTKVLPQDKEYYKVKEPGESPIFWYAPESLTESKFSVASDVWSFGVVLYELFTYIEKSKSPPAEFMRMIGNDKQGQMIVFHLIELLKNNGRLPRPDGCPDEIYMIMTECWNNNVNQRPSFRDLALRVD

One may read the IC50 as the point on the concentration scale where inhibition reaches its midpoint. `CC(C)(C)OC(=O)[C@@H]1CC[C@@](CC#N)(n2nc(Nc3ccc4ncccc4c3)c3c(=O)[nH]ccc32)CO1` [Example 5-215, (2S,5S)-tert-butyl 5-(cyanomethyl)-5-(4-oxo-3-(quinolin-6-ylamino)-4,5-dihydro-1H-pyrazolo[4,3-c]pyridin-1-yl)tetrahydro-2H-pyran-2-carboxylate]: the IC50 worked out at 0.07 nM in experiment [1] and 0.63 nM in experiment [2].
For the compound `CN(C(C)(C)C)S(=O)(=O)c1ccc(Nc2nn([C@]3(CC#N)CC[C@@H](C(=O)OC(C)(C)C)OC3)c3cc[nH]c(=O)c23)cc1` [Example 5-90, (2S,5S)-tert-butyl 5-(3-((4-(N-(tert-butyl)-N-methylsulfamoyl)phenyl)amino)-4-oxo-4,5-dihydro-1H-pyrazolo[4,3-c]pyridin-1-yl)-5-(cyanomethyl)tetrahydro-2H-pyran-2-carboxylate], the IC50 in experiment [1] is 0.33 nM; in experiment [2] it was 0.41 nM.
Take `CN(C)S(=O)(=O)c1ccc(Nc2nn(C3(CC#N)CCN(C(=O)c4ccc(Cl)cc4)CC3)c3cc[nH]c(=O)c23)cc1` [Example 9-13, 4-[(1-{1-[(4-chlorophenyl)carbonyl]-4-(cyanomethyl)piperidin-4-yl}-4-oxo-4,5-dihydro-1H-pyrazolo[4,3-c]pyridin-3-yl)amino]-N,N-dimethylbenzenesulfonamide]: the IC50 turned out to be 1.08 nM in experiment [1] and 12 nM in experiment [2].
`CC(C)(C)OC(=O)N1CCC(CC#N)(n2nc(Nc3ccc(S(=O)(=O)NC4CCCCC4)cc3)c3c(=O)[nH]ccc32)CC1` [Example 5-292, tert-butyl 4-(cyanomethyl)-4-(3-((4-(N-cyclohexylsulfamoyl)phenyl)amino)-4-oxo-4,5-dihydro-1H-pyrazolo[4,3-c]pyridin-1-yl)piperidine-1-carboxylate]: the IC50 was determined as 1.2 nM in experiment [1] and 1.92 nM in experiment [2].
On to `CN(C)S(=O)(=O)c1ccc(Nc2nn(C3(CC#N)CCN(C(=O)CCC(F)(F)F)CC3)c3cc[nH]c(=O)c23)cc1` [Example 9-21, 4-({1-[4-(cyanomethyl)-1-(4,4,4-trifluorobutanoyl)piperidin-4-yl]-4-oxo-4,5-dihydro-1H-pyrazolo[4,3-c]pyridin-3-yl}amino)-N,N-dimethylbenzenesulfonamide], for which the results for the IC50 in experiment [1] and in experiment [2] were 0.08 nM and 0.33 nM, respectively.
